Patent US20120289681A1, “CONJUGATES OF CELL-PENETRATING PEPTIDES AND PHOSPHORESCENT METALLOPORPHYRINS FOR INTRACELLULAR OXYGEN MEASUREMENT” (UNIVERSITY COLLEGE CORK, NATIONAL UNIVERSITY OF IRELAND CORK, priority 2009, published 2012)
Starred links: 1 amine or outer side, 2 acyl side, 3 side chain; linkers in the order of their positions; H or OH if unused. Non-standard residues stand in square brackets, D forms with d. Residues, ends and D or L forms follow the SMILES beside them. No end group written: not given here. *: point of attachment. X1 = CCOC(=O)CCC1=C(C)c2cc3[nH]c(cc4nc(cc5[nH]c(cc1n2)c(C)c5CCC(=O)OCC)C(C)=C4CCC(=O)NCCNC(=O)CCN1C(=O)CC(*)C1=O)c(C)c3CCC(=O)OCC; X2 = CC1=C(CCC(=O)O)c2cc3[nH]c(cc4nc(cc5[nH]c(cc1n2)c(CCC(=O)O)c5C)C(CCC(=O)*)=C4C)c(CCC(=O)O)c3C; X3 = S=C(Nc1ccc(CCN[*:1])cc1)[*:2]; PtCP‑NCS = not defined here

Columns and labels:
Type in all cases: cell-based
[1] = Cell viability assessment by total cellular ATP (CellTiter-Glo); settings: rat, differentiated PC12 cells
Experimental: Cell viability was assessed by measuring total cellular ATP in the loaded cells using CellTiter-Glo luminescent kit (Promega). PC12 cells were seeded into 96 well plates at concentration 50,000/well, differentiated for 3 days, loaded with peptide probe at a concentration 10 uM for 21 hrs, then washed. CellTiter-Glo reagent was then added to each well and chemiluminescence was measured on the Victor2 plate reader (Perkin-Elmer). The total luminescence signal of unloaded cells was taken as 100% viability. For the cells loaded with probes, no significant changes in ATP were observed and cell viability was retained at 93-95%.

[2] = system: PC12 cells; assay: Respiratory response of probe-loaded cells to stimulation with FCCP (lifetime on TR-F reader); settings: 1 uM FCCP
Experimental: (§1) PC12 cells (seeded at 50,000 cells/well in standard 96 well plates and differentiated under standard conditions) were loaded with the cell-penetrating O2 probes in standard medium, using 1-10 uM probe concentrations, volume 100 ul/well and incubation time ranging from 20 min to 24 hrs. After probe loading wells were carefully washed three times with DME medium without phenol red and containing NGF. The same protocol was used for loading of adherent HCT116, HepG2 and SHSY5Y cells, using corresponding media.
Measurement of the cells loaded with probes was conducted on a TR-F plate reader Victor 2 (PerkinElmer, USA) at 37° C. as described in (O'Riordan T C et al—Anal Chem 79:9414-9419; 2007), using 340 nm excitation and 642 nm emission filters. Each well was measured repetitively every 1.8 minutes by taking two TR-F intensity readings at delay times of 30 μs (T1) and 70 μs (T2), using gate time 100 μs. Fluorescence intensity values at T1 (F1) and T2 (F2) were used for calculation of lifetime values using the following equation:
Lifetime [us]=(T2−T1)/ln(F1/F2),
For cell stimulation, the plate was monitored for 10-20 min to reach O2 and temperature equilibrium and obtain basal signals, then quickly withdrawn from the reader, compounds were added to the cells (10 μL of 10× stock solution) and monitoring was resumed. Metabolic effectors were added to the cells at the following final concentrations: 1 uM FCCP, 10 uM antimycin A, 0.5 uM Valinomycin, 5 mM EGTA, 100 mM KCl.

[3] = system: PC12 cells; assay: Cell loading with O2 probes assessed by time-resolved fluorometry (TR-F plate reader)
Experimental: (§2) PC12 cells were seeded in standard 96-well plates pre-coated with collagen IV at 5×10^4 cells/well, and differentiated for 3-5 days in RPMI supplemented with 1% horse serum, P/S, and 100 ng/ml nerve growth factor. HepG2 cells were cultured in DMEM supplemented with 10% FBS, 2 mM L-glutamine and P/S, CHO—in Ex-Cell CHO DHFR^− medium supplemented with 4 mM L-glutamine and 1 μM methotrexate, HCT116—in McCoy medium supplemented with 10% FBS, 2 mM L-glutamine and P/S. The samples with cells were then loaded by incubating them with 1-10 μM of the O2 probe (prepared as described in Example 1) in regular medium at 37° C., 5% CO2, for the required period of time. After incubation the cells were washed 3 times with medium and 0.1 ml of fresh medium were added to each well. For comparison, some samples with cells were loaded with 1.2 μM PtCP-BSA probe (Luxcel Biosciences) in the presence of 6 μM Endo-Porter, as previously described (Zhdanov A V et al—J Biol Chem 283:5650-5661; 2008). The plate with loaded cells and control samples was then measured on a time-resolved fluorescence (TR-F) plate reader Victor 2 (PerkinElmer) set at 37° C., using 340 nm excitation and 642 nm emission filters. Each well was measured several times by taking TR-F intensity reading at delay time of 30 μs and gate time 100 μs. Measured TR-F signals were averaged and used to assess the efficiency of loading.
as §1

[4] = system: HCT116 cells; assay: Cell loading with O2 probes in HCT116 cells
Experimental: as §2, with “loading. […]” for “loading.”

[5] = system: cells; assay: Cell-penetrating / cell-loading ability (cell line not stated)
[6] = system: cells; assay: Toxicity of the dye/probe on cells (cell line not stated)

Compound	viability at 21 h, 10 µM [1] [%]	magnitude of respiratory response to FCCP in lifetime units [2]	uptake / accumulation in PC12 cells (in words) [3]	loading of HCT116 cells (in words) [4]	further results
CCOC(=O)CCC1=C(C)c2cc3[nH]c(cc4nc(cc5[nH]c(cc1n2)c(C)c5CCC(=O)OCC)C(C)=C4CCC(=O)NCCNC(=O)CCN1C(=O)CC(SC[C@H](N)C(=O)N[C@@H](Cc2ccccc2)C(=O)N[C@@H](CCCNC(=N)N)C(=O)N[C@@H](CCCNC(=N)N)C(=O)N[C@@H](CCCNC(=N)N)C(=O)N[C@@H](CCCNC(=N)N)C(=O)N[C@@H](CCCNC(=N)N)C(=O)N[C@@H](CCCNC(=N)N)C(=O)N[C@@H](CCCNC(=N)N)C(=O)N[C@@H](CCCNC(=N)N)C(=O)N[C@@H](CCCNC(=N)N)C(=O)O)C1=O)c(C)c3CCC(=O)OCC (some centres unmarked) [PTCPTE-CFR9] (H-C(X1)FRRRRRRRRR-OH; N-terminus assumed)	93 to 95	about 2 microseconds	higher intracellular uptake than PTCPTE-TAT	–	increase in probe lifetime on FCCP stimulation [2]: 2 us; average fluorescence signals (cell loading) ([3]; after 24 h of loading): about 200,000 counts
CC1=C(CCC(=O)O)c2cc3[nH]c(cc4nc(cc5[nH]c(cc1n2)c(CCC(=O)O)c5C)C(CCC(=O)NCCc1ccc(NC(=S)N[C@@H](Cc2ccccc2)C(=O)N[C@@H](CCCNC(=N)N)C(=O)N[C@@H](CCCNC(=N)N)C(=O)N[C@@H](CCCNC(=N)N)C(=O)N[C@@H](CCCNC(=N)N)C(=O)N[C@@H](CCCNC(=N)N)C(=O)N[C@@H](CCCNC(=N)N)C(=O)N[C@@H](CCCNC(=N)N)C(=O)N[C@@H](CCCNC(=N)N)C(=O)N[C@@H](CCCNC(=N)N)C(=O)O)cc1)=C4C)c(CCC(=O)O)c3C [PtCP-FR9] (X2-[X3]FRRRRRRRRR-OH; C-terminus assumed)	93 to 95	about 2 microseconds	low uptake	did not load well	–
PEPP5: MTS-CGR9 peptide MGRTVVVLGGGISGLAAGCGRRRRRRRRR labelled with PTCPTE-MI derivative (PTCPTE-MI label)	–	–	–	–	cell-penetrating / cell-loading ability (in words) [5]: high cell loading efficiency
Pt-tetrakis(pyridinium)porphine tetrachloride	–	–	–	–	toxicity on cells (in words) [6]: high cyto- and phototoxicity
PtCP-BN: PtCP-NCS derivative labelled on N-terminal amino group of BN (bactenecin) peptide GPRPLPFPRPG ({PtCP‑NCS}-GPRPLPFPRPG; reading uncertain)	–	–	low uptake	did not load well	–
PtCP-BSA: conventional cell-impermeable O2 probe (Luxcel Biosciences), loaded with Endo-Porter transfection reagent [reference compound]	–	–	–	–	average fluorescence signals (cell loading) ([3]; probe loaded by transfection (Endo-Porter)): 60,000 cps
